Results taken from patent US7572786B2, “Substituted 1-piperidin-3-yl-4-piperidin-4-yl-piperazine derivatives and their use as neurokinin antagonists” (Janssen Pharmaceutica, N.V., priority 2002, dated 2009).

Assays:
Format in all cases: cell-based
NK1 = NK1 (Homo sapiens, UniProt P25103); experiment: Signal transduction (ST), intracellular Ca++ (FLIPR), NK1 antagonism; settings: for IC50: read-out: pIC50 NK1 (converted)
Procedure: (§1) This test evaluates in vitro functional NK1 antagonistic activity. For the measurements of intracellular Ca^++ concentrations the cells were grown on 96-well (black wall/transparent bottom) plates from Costar for 2 days until they reached confluence. The cells were loaded with 2 μM Fluo3 in DMEM containing 0.1% BSA and 2.5 mM probenecid for 1 h at 37° C. […] The cells were preincubated with a concentration range of antagonists for 20 min at RT and Ca^++-signals after addition of the agonists were measured in a Fluorescence Image Plate Reader (FLIPR from Molecular Devices, Crawley, England). The peak of the Ca^++-transient was considered as the relevant signal and the mean values of corresponding wells were analysed as described below.
(§2) The sigmoidal dose response curves were analysed by computerised curve-fitting, using the GraphPad Program. […] For antagonist responses the IC50-value was calculated using non-linear regression.

NK2 = target: T1, NK2 (Homo sapiens, UniProt P21452); experiment: Signal transduction (ST), intracellular Ca++ (FLIPR), NK2; settings: for IC50: read-out: pIC50 NK2 (converted)
T1 sequence (P21452 1-398): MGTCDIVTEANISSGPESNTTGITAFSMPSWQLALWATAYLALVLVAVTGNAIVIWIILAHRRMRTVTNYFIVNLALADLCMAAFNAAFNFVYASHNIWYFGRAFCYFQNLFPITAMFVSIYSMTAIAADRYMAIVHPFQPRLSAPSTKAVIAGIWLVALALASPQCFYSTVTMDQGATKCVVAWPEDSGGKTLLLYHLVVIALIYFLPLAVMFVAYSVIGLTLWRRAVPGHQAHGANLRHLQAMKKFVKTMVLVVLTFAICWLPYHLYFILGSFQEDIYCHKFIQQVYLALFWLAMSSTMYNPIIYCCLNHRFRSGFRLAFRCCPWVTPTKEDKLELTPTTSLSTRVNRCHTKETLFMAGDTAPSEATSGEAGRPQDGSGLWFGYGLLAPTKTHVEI
Procedure: [The source words this procedure for another target and reports this target under the same test.] as §1, §2

NK3 = target: T2, NK3 (Homo sapiens, UniProt P29371); experiment: Signal transduction (ST), intracellular Ca++ (FLIPR), NK3; settings: for IC50: read-out: pIC50 NK3 (converted)
T2 sequence (P29371 1-465): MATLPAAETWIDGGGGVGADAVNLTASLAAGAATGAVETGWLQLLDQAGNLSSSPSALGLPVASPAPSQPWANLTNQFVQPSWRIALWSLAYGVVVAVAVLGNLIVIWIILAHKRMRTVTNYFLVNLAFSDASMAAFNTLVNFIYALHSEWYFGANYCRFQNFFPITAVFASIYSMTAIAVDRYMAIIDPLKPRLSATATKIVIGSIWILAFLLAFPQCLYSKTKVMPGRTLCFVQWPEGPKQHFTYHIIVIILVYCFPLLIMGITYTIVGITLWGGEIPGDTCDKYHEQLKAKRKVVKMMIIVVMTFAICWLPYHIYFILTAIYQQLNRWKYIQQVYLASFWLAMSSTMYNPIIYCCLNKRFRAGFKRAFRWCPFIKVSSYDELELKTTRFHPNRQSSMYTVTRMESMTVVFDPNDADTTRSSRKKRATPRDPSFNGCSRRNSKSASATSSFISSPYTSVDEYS
Procedure: [The source words this procedure for another target and reports this target under the same test.] as §1, §2

Chain of NK1 (P25103 whole entry): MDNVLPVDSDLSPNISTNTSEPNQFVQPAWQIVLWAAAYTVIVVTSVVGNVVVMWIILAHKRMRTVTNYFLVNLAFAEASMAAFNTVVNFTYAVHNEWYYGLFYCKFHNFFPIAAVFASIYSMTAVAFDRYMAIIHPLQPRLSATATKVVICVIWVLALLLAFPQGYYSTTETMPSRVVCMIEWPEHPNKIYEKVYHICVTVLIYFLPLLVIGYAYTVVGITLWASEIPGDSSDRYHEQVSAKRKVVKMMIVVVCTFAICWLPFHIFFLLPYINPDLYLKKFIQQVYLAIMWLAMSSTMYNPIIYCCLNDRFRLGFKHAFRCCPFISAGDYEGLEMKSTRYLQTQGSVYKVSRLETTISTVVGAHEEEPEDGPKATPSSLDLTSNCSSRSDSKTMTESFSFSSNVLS

Structure (SMILES) | IC50 (NK1) [nM] | IC50 (NK2) [nM] | IC50 (NK3) [nM] | pIC50 NK1 (NK1) | pIC50 NK2 (NK2) | pIC50 NK3 (NK3)
O=C(c1cc(C(F)(F)F)cc(C(F)(F)F)c1)N1CC[C@H](N2CCN(C3CCCN(C(=O)C4(O)CC4)C3)CC2)C[C@H]1Cc1ccccc1 (stereo partly drawn) [Compound 61] | 7.94 | 3160 | 6310 | – | – | –
N#Cc1ccc(C(=O)N2CCCC(N3CCN([C@H]4CCN(C(=O)c5cc(C(F)(F)F)cc(C(F)(F)F)c5)[C@H](Cc5ccccc5)C4)CC3)C2)cc1 (stereo partly drawn) [Compound 62] | 10 | 3980 | 3160 | – | – | –
Cn1cnc(C(=O)N2CCCC(N3CCN([C@H]4CCN(C(=O)c5cc(C(F)(F)F)cc(C(F)(F)F)c5)[C@H](Cc5ccccc5)C4)CC3)C2)c1 (stereo partly drawn) [Compound 63] | 5.01 | 3160 | 6310 | – | – | –
O=C(c1c(Cl)cccc1Cl)N1CCCC(N2CCN([C@H]3CCN(C(=O)c4cc(C(F)(F)F)cc(C(F)(F)F)c4)[C@H](Cc4ccccc4)C3)CC2)C1 (stereo partly drawn) [Compound 64] | 12.6 | 6310 | 794 | – | – | –
O=C(Nc1ccccc1F)N1CCCC(N2CCN([C@H]3CCN(C(=O)c4cc(C(F)(F)F)cc(C(F)(F)F)c4)[C@H](Cc4ccccc4)C3)CC2)C1 (stereo partly drawn) [Compound 65] | 10 | 1580 | 6310 | – | – | –
CC(C)NC(=O)N1CCCC(N2CCN(C3CCN(C(=O)c4cc(C(F)(F)F)cc(C(F)(F)F)c4)C(Cc4ccccc4)C3)CC2)C1 (stereo not drawn) [Compound 66] | 5.01 | 3160 | 3160 | – | – | –
O=C(c1ccc(O)cc1)N1CCCC(N2CCN(C3CCN(C(=O)c4cc(C(F)(F)F)cc(C(F)(F)F)c4)C(Cc4ccccc4)C3)CC2)C1 (stereo not drawn) [Compound 67] | 6.31 | 5010 | 1580 | – | – | –
COc1ccccc1S(=O)(=O)N1CCCC(N2CCN([C@H]3CCN(C(=O)c4cc(C(F)(F)F)cc(C(F)(F)F)c4)[C@H](Cc4ccccc4)C3)CC2)C1 (stereo partly drawn) [Compound 68] | – | – | – | 8.0 | 5.8 | 5.8
COc1cccc(S(=O)(=O)N2CCCC(N3CCN([C@H]4CCN(C(=O)c5cc(C(F)(F)F)cc(C(F)(F)F)c5)[C@H](Cc5ccccc5)C4)CC3)C2)c1 (stereo partly drawn) [Compound 69] | – | – | – | 7.8 | 5.6 | 6.2
O=C(c1cccc(O)c1)N1CCCC(N2CCN([C@H]3CCN(C(=O)c4cc(C(F)(F)F)cc(C(F)(F)F)c4)[C@H](Cc4ccccc4)C3)CC2)C1 (stereo partly drawn) [Compound 70] | 7.94 | 3980 | 1260 | – | – | –
COc1ccc(S(=O)(=O)N2CCCC(N3CCN([C@H]4CCN(C(=O)c5cc(C(F)(F)F)cc(C(F)(F)F)c5)[C@H](Cc5ccccc5)C4)CC3)C2)cc1 (stereo partly drawn) [Compound 72] | 20 | 2000 | 1260 | – | – | –
O=C(c1cc(C(F)(F)F)cc(C(F)(F)F)c1)N1CC[C@H](N2CCN(C3CCCN(S(=O)(=O)c4ccc(CO)cc4)C3)CC2)C[C@H]1Cc1ccccc1 (stereo partly drawn) [Compound 73] | 7.94 | 794 | 251 | – | – | –
O=C(Nc1ccc(Cl)cc1)N1CCCC(N2CCN([C@H]3CCN(C(=O)c4cc(C(F)(F)F)cc(C(F)(F)F)c4)[C@H](Cc4ccccc4)C3)CC2)C1 (stereo partly drawn) [Compound 74] | – | – | – | 8.0 | 5.4 | 5.5
O=C(c1cc(C(F)(F)F)cc(C(F)(F)F)c1)N1CC[C@H](N2CCN(C3CCCN(C(CO)c4ccsc4)C3)CC2)C[C@H]1Cc1ccccc1 (stereo partly drawn) [Compound 76] | 20 | 2000 | 1580 | – | – | –
O=C(c1cc(C(F)(F)F)cc(C(F)(F)F)c1)N1CCC(N2CCN(C3CCCN(C(CO)c4cccs4)C3)CC2)CC1Cc1ccccc1 (stereo not drawn) [Compound 77] | 12.6 | 2000 | 3160 | – | – | –
O=C(c1cc(C(F)(F)F)cc(C(F)(F)F)c1)N1CCC(N2CCN(C3CCCN(S(=O)(=O)c4ccc(O)cc4)C3)CC2)CC1Cc1ccccc1 (stereo not drawn) [Compound 78] | 3.98 | 794 | 316 | – | – | –
O=C(c1cc(C(F)(F)F)cc(C(F)(F)F)c1)N1CC[C@H](N2CCN(C3CCCN(C(CO)c4ccoc4)C3)CC2)C[C@H]1Cc1ccccc1 (stereo partly drawn) [Compound 79] | 12.6 | 1580 | 1000 | – | – | –
O=C(c1cc(C(F)(F)F)cc(C(F)(F)F)c1)N1CC[C@H](N2CCN(C3CCCN(S(=O)(=O)c4cccc(O)c4)C3)CC2)C[C@H]1Cc1ccccc1 (stereo partly drawn) [Compound 80] | 10 | 794 | 501 | – | – | –
O=C(OCc1ccccc1C(=O)N1CCCC(N2CCN([C@H]3CCN(C(=O)c4cc(C(F)(F)F)cc(C(F)(F)F)c4)[C@H](Cc4ccccc4)C3)CC2)C1)c1ccccc1 (stereo partly drawn) [Compound 82] | 63.1 | 3160 | 7940 | – | – | –
O=C(c1cc(C(F)(F)F)cc(C(F)(F)F)c1)N1CC[C@H](N2CCN(C3CCCN(S(=O)(=O)c4ccc(CCOCc5ccccc5)s4)C3)CC2)C[C@H]1Cc1ccccc1 (stereo partly drawn) [Compound 84] | 251 | 501 | 1260 | – | – | –
O=C(c1cc(COCc2ccccc2)cs1)N1CCCC(N2CCN([C@H]3CCN(C(=O)c4cc(C(F)(F)F)cc(C(F)(F)F)c4)[C@H](Cc4ccccc4)C3)CC2)C1 (stereo partly drawn) [Compound 85] | 79.4 | 3980 | 5010 | – | – | –
O=C(c1cc(C(F)(F)F)cc(C(F)(F)F)c1)N1CC[C@H](N2CCN(C3CCCN(S(=O)(=O)c4ccc(CCO)s4)C3)CC2)C[C@H]1Cc1ccccc1 (stereo partly drawn) [Compound 86] | – | – | – | 8.2 | 6.4 | 6.3
O=C(c1cc(C(F)(F)F)cc(C(F)(F)F)c1)N1CC[C@H](N2CCN(C3CCCN(S(=O)(=O)c4ccc(COCc5ccccc5)s4)C3)CC2)C[C@H]1Cc1ccccc1 (stereo partly drawn) [Compound 87] | 316 | 794 | 7940 | – | – | –
O=C(c1sccc1COCc1ccccc1)N1CCCC(N2CCN([C@H]3CCN(C(=O)c4cc(C(F)(F)F)cc(C(F)(F)F)c4)[C@H](Cc4ccccc4)C3)CC2)C1 (stereo partly drawn) [Compound 88] | 39.8 | 2510 | 631 | – | – | –
O=C(c1cc(C(F)(F)F)cc(C(F)(F)F)c1)N1CC[C@H](N2CCN(C3CCCN(C(CO)c4ccccc4Cl)C3)CC2)C[C@H]1Cc1ccccc1 (stereo partly drawn) [Compound 89] | 63.1 | 5010 | 7940 | – | – | –
CC(C)N/C(=N\C#N)N1CCCC(N2CCN(C3CCN(C(=O)c4cc(C(F)(F)F)cc(C(F)(F)F)c4)C(Cc4ccccc4)C3)CC2)C1 (stereo not drawn) [Compound 91] | 10 | 1000 | 3980 | – | – | –
O=C(c1cc(C(F)(F)F)cc(C(F)(F)F)c1)N1CC[C@H](N2CCN(C3CCCN(S(=O)(=O)c4ccc(CO)s4)C3)CC2)C[C@H]1Cc1ccccc1 (stereo partly drawn) [Compound 92] | 12.6 | 501 | 158 | – | – | –
COc1ccc(NC(=NC#N)N2CCCC(N3CCN([C@H]4CCN(C(=O)c5cc(C(F)(F)F)cc(C(F)(F)F)c5)[C@H](Cc5ccccc5)C4)CC3)C2)cc1 (stereo partly drawn) [Compound 94] | 20 | 3980 | 1000 | – | – | –
COc1ccc(S(=O)(=O)N2CCCC(N3CCN([C@H]4CCN(C(=O)c5cc(C(F)(F)F)cc(C(F)(F)F)c5)[C@H](Cc5ccccc5)C4)CC3)C2)s1 (stereo partly drawn) [Compound 95] | 31.6 | 3160 | 1260 | – | – | –
O=C(c1cc(C(F)(F)F)cc(C(F)(F)F)c1)N1CCC(N2CCN(C3CCCN(S(=O)(=O)c4cc(CCO)cs4)C3)CC2)CC1Cc1ccccc1 (stereo not drawn) [Compound 96] | 15.8 | 398 | 100 | – | – | –
